# Literature values, collected in patent US4202888A, “Readily enterally absorbable pharmaceutical compositions of cardiac glycosides and preparation thereof” (priority 1976, dated 1980).
# Settings: for enteral absorbability (in words): background statement; for per se enteral absorbability: without partial glycerides
Compound,enteral absorbability (in words),per se enteral absorbability,factor of individual variation in enteral absorption (between individuals)
C[C@@H]1O[C@@H](O[C@@H]2C=C3CC[C@@H]4[C@H](CC[C@]5(C)[C@@H](c6ccc(=O)oc6)CC[C@]45O)[C@@]3(C)CC2)[C@H](O)[C@H](O)[C@H]1O [proscillaridin],insufficient enteral absorbability,less than 5%,–
k-strophanthin,insufficient enteral absorbability,less than 5%,–
CC1OC(OC2CC(O)C3(CO)C4C(O)CC5(C)C(C6=CC(=O)OC6)CCC5(O)C4CCC3(O)C2)C(O)C(O)C1O (stereo not drawn) [g-strophanthin],insufficient enteral absorbability,less than 5%,10
C[C@H]1O[C@@H](O[C@H]2[C@@H](O)C[C@H](O[C@H]3[C@@H](O)C[C@H](O[C@H]4CC[C@@]5(C)[C@H](CC[C@@H]6[C@@H]5CC[C@]5(C)[C@@H](C7=CC(=O)OC7)CC[C@]65O)C4)O[C@@H]3C)O[C@@H]2C)C[C@H](O)[C@@H]1O [digitoxin],absorbable completely,–,–
C[C@H]1O[C@@H](O[C@H]2[C@@H](O)C[C@H](O[C@H]3[C@@H](O)C[C@H](O[C@H]4CC[C@@]5(C)[C@H](CC[C@@H]6[C@@H]5C[C@@H](O)[C@]5(C)[C@@H](C7=CC(=O)OC7)CC[C@]65O)C4)O[C@@H]3C)O[C@@H]2C)C[C@H](O)[C@@H]1O [digoxin],to at least an acceptable degree,–,–
